Reference: patent publication US8748466B2, “Isoxazole derivatives useful as antibacterial agents” (Pfizer Inc., priority 2011, dated 2014)
Converted amounts (≈) assume the structure as drawn. Like-named read-outs stand apart in the source and are kept apart here.

Assays:
[1] = molecular target: T1, Pseudomonas aeruginosa LpxC enzyme (Pseudomonas aeruginosa, UniProt P47205); test: LpxC enzyme IC50 assay (PA LpxC enzyme IC50), BioTrove RapidFire mass spectrometry; assay type: biochemical
T1 construct: made in house; host or cells: E. coli
T1 sequence (P47205 1-303): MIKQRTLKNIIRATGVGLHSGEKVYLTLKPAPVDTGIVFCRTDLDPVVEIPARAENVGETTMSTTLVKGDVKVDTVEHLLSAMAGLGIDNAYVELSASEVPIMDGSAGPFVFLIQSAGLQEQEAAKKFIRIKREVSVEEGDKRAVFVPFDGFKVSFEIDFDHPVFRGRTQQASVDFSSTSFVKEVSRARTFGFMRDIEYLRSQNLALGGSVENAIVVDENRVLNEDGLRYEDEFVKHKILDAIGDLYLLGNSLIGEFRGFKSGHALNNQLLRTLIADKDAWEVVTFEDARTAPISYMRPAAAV
Method: In order to assess the compounds biological activity selected in vitro assays were conducted on selected compounds. One of the assays measured the compounds ability to disrupt the synthesis of lipopolysaccharide, LPS, which is a component of the outer membrane of Gram-negative bacteria. Disruption of this synthesis is lethal to the bacteria. The assay determined the compound's ability to inhibit LpxC, which is the first enzyme in the biosynthetic pathway for LPS (measured as IC50). Additionally, MICs (minimal inhibitory concentrations) were determined for several bacteria. The specific protocols are described below:
A) IC50 Assay LpxC Enzyme from P. aeruginosa Labeled as PA LpxC Enzyme IC50):
At the end of 1 hour, 5 ul of 1 N HCl was added to stop the enzyme reaction, the plates were centrifuged, and then processed with the BioTrove Rapidfire HTMS Mass Spectrometry System. A no-enzyme control was used in calculating the IC50 values from the percent conversion values.

[2] = system: Pseudomonas aeruginosa UC12120 (mouse virulent); test: MIC determination (CLSI), PA-UC12120; assay type: cell-based; details: UC12120, read-out: PA-UC12120 MIC
Method: (§1) The in vitro antibacterial activity of compounds described in the Examples was evaluated by minimum inhibitory concentration (MIC) testing according to Clinical and Laboratory Standards Institute (CLSI). See: Clinical and Laboratory Standards Institute. Methods for Dilution Antimicrobial Susceptibility Tests for Bacteria that Grow Aerobically; Approved Standard-Eighth Edition. CLSI document M7-A8 [ISBN 1-56238-689-1]. Clinical and Laboratory Standards Institute, 940 West Valley Road, Suite 1400, Wayne, Pa. 19087-1898 USA, 2006; also Clinical and Laboratory Standards Institute. Performance Standards for Antimicrobial Susceptibility Testing; Twentieth Informational Supplement. CLSI document M100-S20 [ISBN1-56238-716-2]. Clinical and Laboratory Standards Institute.
(§2) The MIC determination is a standard laboratory method for evaluating the antibacterial activity of a compound. The MIC represents the lowest drug concentration that inhibits visible growth of bacteria following overnight incubation. […] Typically, the drug concentration range is broken down into 2-fold increments (e.g., 0.06 μg/mL, 0.12 μg/mL. 0.25 μg/mL, 0.50 μg/mL, 1.0 μg/mL, etc.) and the various drug concentrations are all individually incubated overnight with approximately the same number of bacteria. The MIC is then determined by visually inspecting the drug effect at each concentration, and identifying the lowest drug concentration that has inhibited bacterial growth as compared to the drug free control. Typically, bacteria continue to grow at drug concentrations lower than the MIC and don't grow at concentrations at and above the MIC.
(§3) The MIC values described in Tables 4 and 5 below were derived from assays wherein each test compound was evaluated in duplicate. In cases where the duplicate values varied by 0-2-fold, the lower of the two values was reported below. Generally speaking, if the duplicate values varied by more than 2-fold, the assay was considered non-valid and was repeated until the variation between duplicate runs was 2-fold. In line with the CLSI guidelines referred to above, both control organisms and reference compounds were utilized in each MIC assay to provide proper quality control. MIC values generated with these control organisms and reference compounds were required to fall within a defined range for the assay to be considered valid and be included herein. Those skilled in the art will recognize that MIC values can and do vary from experiment to experiment. Generally speaking, it should be recognized that MIC values often vary +/−2-fold from experiment to experiment. While a single MIC is reported for each compound and each microorganism, the reader should not conclude that each compound was only tested once. Several of the compounds were subjected to multiple tests. The data reported in Tables 4 and 5 is reflective of the compound's relative activity and different MICs may have been generated on these occasions in line with the guidelines described above.
(§4) The following bacterial strains were used in these MIC determinations:
1) Pseudomonas aeruginosa UC12120 (mouse virulent) labeled as PA-UC12120 in Tables 4 and 5;

[3] = system: Escherichia coli EC-1: VOGEL, mouse virulent; test: MIC determination (CLSI), EC-1; assay type: cell-based; details: read-out: EC-1 MIC
Method: as §1, §2, §3, §4
2) Escherichia coli EC-1: VOGEL, mouse virulent labeled as EC-1 in Tables 4 and 5;

[4] = system: Acinetobacter baumannii/haemolyticus: Multidrug-resistant clinical isolate AB-3167; test: MIC determination (CLSI), AB-3167; assay type: cell-based; details: overnight incubation, duplicate, lower of the two values reported
Method: as §1, §2, §3, §4
3) Acinetobacter baumannii/haemolyticus: Multidrug-resistant clinical isolate labeled as AB-3167 in Tables 4 and 5;

[5] = P. aeruginosa LpxC enzyme 0.1 nM, 25° C., 1 hour, pH 8.0, read-out: PA:IC50

## CC(CCc1cc(COCc2ccccc2)on1)(C(=O)NO)S(C)(=O)=O (racemic) [Example 9, 4-{5-[(benzyloxy)methyl]isoxazol-3-yl}-N-hydroxy-2-methyl-2-(methylsulfonyl)butanamide]
[1]; [5]
  IC50: 25.1 nM
[2]
  MIC: 8 µg/mL (≈ 20.9 µM)
[3]
  MIC: > 64 µg/mL
[4]
  MIC: > 64 µg/mL

## CC(CCc1cc(-c2ccc3c(c2)OCO3)no1)(C(=O)NO)S(C)(=O)=O (racemic) [Example 33, 4-[3-(1,3-benzodioxol-5-yl)isoxazol-5-yl]-N-hydroxy-2-methyl-2-(methylsulfonyl)butanamide]
[1]; [5]
  IC50: 5.1 nM
[2]
  MIC: 2 µg/mL (≈ 5.23 µM)
[3]
  MIC: 16 µg/mL (≈ 41.8 µM)
[4]
  MIC: > 64 µg/mL

## C[C@@](CCc1cc(-c2ccccc2)no1)(C(=O)NO)S(C)(=O)=O [Example 4, (2R)-N-hydroxy-2-methyl-2-(methylsulfonyl)-4-(3-phenylisoxazol-5-yl)butanamide]
[1]; [5]
  IC50: 5.78 nM
[2]
  MIC: 0.25 µg/mL (≈ 0.739 µM)
[3]
  MIC: 4 µg/mL (≈ 11.8 µM)
[4]
  MIC: > 64 µg/mL

## COc1ccc(-c2cc(CC[C@](C)(C(=O)NO)S(C)(=O)=O)on2)c(F)c1 [Example 3, (2R)-4-[3-(2-fluoro-4-methoxyphenyl)isoxazol-5-yl]-N-hydroxy-2-methyl-2-(methylsulfonyl)butanamide]
[1]
  IC50: 4.4 nM
[2]
  MIC: 0.5 µg/mL (≈ 1.29 µM)
[3]
  MIC: 4 µg/mL (≈ 10.4 µM)
[4]
  MIC: > 64 µg/mL

## CC(CCc1cc(-c2cccc(F)c2)on1)(C(=O)NO)S(C)(=O)=O (racemic) [Example 21, 4-[5-(3-fluorophenyl)isoxazol-3-yl]-N-hydroxy-2-methyl-2-(methylsulfonyl)butanamide]
[1]
  IC50: 6.8 nM
[2]
  MIC: 4 µg/mL (≈ 11.2 µM)
[3]
  MIC: 32 µg/mL (≈ 89.8 µM)
[4]
  MIC: > 64 µg/mL

## C[C@@](CCc1cc(-c2ccccc2)on1)(C(=O)NO)S(C)(=O)=O [Example 6, (2R)-N-hydroxy-2-methyl-2-(methylsulfonyl)-4-(5-phenylisoxazol-3-yl)butanamide]
[1]
  IC50: 0.51 nM
[2]
  MIC: 0.25 µg/mL (≈ 0.739 µM)
[3]
  MIC: 8 µg/mL (≈ 23.6 µM)
[4]
  MIC: > 64 µg/mL

## CC(CCc1cc(CNS(=O)(=O)c2ccc(F)cc2)on1)(C(=O)NO)S(C)(=O)=O (racemic) [Example 27, 4-[5-({[(4-fluorophenyl)sulfonyl]amino}methyl)isoxazol-3-yl]-N-hydroxy-2-methyl-2-(methylsulfonyl)butanamide]
[1]; [5]
  IC50: > 100 nM
[2]
  MIC: > 64 µg/mL
[3]
  MIC: > 64 µg/mL
[4]
  MIC: > 64 µg/mL

## CCCCSC(=O)N(C)Cc1cc(CCC(C)(C(=O)NO)S(C)(=O)=O)no1 (racemic) [Example 14, S-butyl ({3-[4-(hydroxyamino)-3-methyl-3-(methylsulfonyl)-4-oxobutyl]isoxazol-5-yl}methyl)methylthiocarbamate]
[1]; [5]
  IC50: > 100 nM
[2]
  MIC: > 64 µg/mL
[3]
  MIC: > 64 µg/mL
[4]
  MIC: > 64 µg/mL

## CC(CCc1cc(-c2cccc(Cl)c2Cl)on1)(C(=O)NO)S(C)(=O)=O (racemic) [Example 30, 4-[5-(2,3-dichlorophenyl)isoxazol-3-yl]-N-hydroxy-2-methyl-2-(methylsulfonyl)butanamide]
[1]
  IC50: 2.7 nM
[2]
  MIC: 1 µg/mL (≈ 2.46 µM)
[3]
  MIC: 4 µg/mL (≈ 9.82 µM)
[4]
  MIC: > 64 µg/mL

## CCCCNC(=O)OCc1cc(CCC(C)(C(=O)NO)S(C)(=O)=O)no1 (racemic) [Example 25, {3-[4-(hydroxyamino)-3-methyl-3-(methylsulfonyl)-4-oxobutyl]isoxazol-5-yl}methyl butylcarbamate]
[1]; [5]
  IC50: > 100 nM
[2]
  MIC: > 64 µg/mL
[3]
  MIC: > 64 µg/mL
[4]
  MIC: > 64 µg/mL

## CC(CCc1cc(-c2ccccc2F)on1)(C(=O)NO)S(C)(=O)=O (racemic) [Example 8, 4-[5-(2-fluorophenyl)isoxazol-3-yl]-N-hydroxy-2-methyl-2-(methylsulfonyl)butanamide]
[1]
  IC50: 8.3 nM
[2]
  MIC: 1 µg/mL (≈ 2.81 µM)
[3]
  MIC: 16 µg/mL (≈ 44.9 µM)
[4]
  MIC: > 64 µg/mL

## CC(CCc1cc(-c2ccc3ccccc3n2)no1)(C(=O)NO)S(C)(=O)=O (racemic) [Example 35, N-hydroxy-2-methyl-2-(methylsulfonyl)-4-(3-quinolin-2-ylisoxazol-5-yl)butanamide]
[1]; [5]
  IC50: 22.1 nM
[2]
  MIC: 8 µg/mL (≈ 20.5 µM)
[3]
  MIC: 32 µg/mL (≈ 82.2 µM)
[4]
  MIC: > 64 µg/mL

## COc1cccc(OC)c1-c1cc(CCC(C)(C(=O)NO)S(C)(=O)=O)on1 (racemic) [Example 32, 4-[3-(2,6-dimethoxyphenyl)isoxazol-5-yl]-N-hydroxy-2-methyl-2-(methylsulfonyl)butanamide]
[1]; [5]
  IC50: 88.7 nM
[2]
  MIC: > 64 µg/mL
[3]
  MIC: > 64 µg/mL
[4]
  MIC: > 64 µg/mL

## CC(CCc1cc(-c2ccc(F)c(F)c2F)no1)(C(=O)NO)S(C)(=O)=O (racemic) [Example 36, N-hydroxy-2-methyl-2-(methylsulfonyl)-4-[3-(2,3,4-trifluorophenyl)isoxazol-5-yl]butanamide]
[1]; [5]
  IC50: 3.9 nM
[2]
  MIC: 1 µg/mL (≈ 2.55 µM)
[3]
  MIC: 16 µg/mL (≈ 40.8 µM)
[4]
  MIC: > 64 µg/mL

## CCOC(C)(C)c1cc(CCC(C)(C(=O)NO)S(C)(=O)=O)on1 (racemic) [Example 31, 4-[3-(1-ethoxy-1-methylethyl)isoxazol-5-yl]-N-hydroxy-2-methyl-2-(methylsulfonyl)butanamide]
[1]; [5]
  IC50: > 100 nM
[2]
  MIC: > 64 µg/mL
[3]
  MIC: > 64 µg/mL
[4]
  MIC: > 64 µg/mL

## CC(CCc1cc(-c2cccc(F)c2)no1)(C(=O)NO)S(C)(=O)=O (racemic) [Example 34, 4-[3-(3-fluorophenyl)isoxazol-5-yl]-N-hydroxy-2-methyl-2-(methylsulfonyl)butanamide]
[1]; [5]
  IC50: 9.3 nM
[2]
  MIC: 2 µg/mL (≈ 5.61 µM)
[3]
  MIC: 32 µg/mL (≈ 89.8 µM)
[4]
  MIC: > 64 µg/mL

## CC(CCc1cc(-c2ccc(F)c(F)c2)no1)(C(=O)NO)S(C)(=O)=O (racemic) [Example 41, 4-[3-(3,4-difluorophenyl)isoxazol-5-yl]-N-hydroxy-2-methyl-2-(methylsulfonyl)butanamide]
[1]; [5]
  IC50: 6.8 nM
[2]
  MIC: 2 µg/mL (≈ 5.34 µM)
[3]
  MIC: 16 µg/mL (≈ 42.7 µM)
[4]
  MIC: > 64 µg/mL

## CC(CCc1cc(-c2c(Cl)cccc2Cl)on1)(C(=O)NO)S(C)(=O)=O (racemic) [Example 10, 4-[5-(2,6-dichlorophenyl)isoxazol-3-yl]-N-hydroxy-2-methyl-2-(methylsulfonyl)butanamide]
[1]; [5]
  IC50: 10.5 nM
[2]
  MIC: 64 µg/mL (≈ 157 µM)
[3]
  MIC: 8 µg/mL (≈ 19.6 µM)
[4]
  MIC: > 64 µg/mL

## COc1ccc(-c2cc(CCC(C)(C(=O)NO)S(C)(=O)=O)on2)cc1 (racemic) [Example 47, N-hydroxy-4-[3-(4-methoxyphenyl)isoxazol-5-yl]-2-methyl-2-(methylsulfonyl)butanamide]
[1]; [5]
  IC50: 4.1 nM
[2]
  MIC: 1 µg/mL (≈ 2.71 µM)
[3]
  MIC: 16 µg/mL (≈ 43.4 µM)
[4]
  MIC: > 64 µg/mL

## CC(CCc1cc(-c2ncccc2F)no1)(C(=O)NO)S(C)(=O)=O (racemic) [Example 43, 4-[3-(3-fluoropyridin-2-yl)isoxazol-5-yl]-N-hydroxy-2-methyl-2-(methylsulfonyl)butanamide]
[1]; [5]
  IC50: > 100 nM
[2]
  MIC: 32 µg/mL (≈ 89.5 µM)
[3]
  MIC: 64 µg/mL (≈ 179 µM)
[4]
  MIC: > 64 µg/mL
